Laboratory results published in US8361487B1, “Ant controllers and method for application thereof” (BASF Aktiengesellschaft, priority 1999, dated 2013).

tested on: Coptotermes formosanus Shiraki; assay: Test Example 1: termite-killing test on treated filter paper; assay type: in vivo; conditions: mortality class; 1 ml of a 500 ppm solution on filter paper, seven days after inoculation, triplicate group of 10 insects
Description: A filter paper was spread in a glass dish having a diameter of 9 cm, onto which was dropped 1 ml of a 500 ppm solution of the ant controller of the present invention. Then, the filter paper was inoculated with Coptotermes formosanus Shiraki. Seven days after the inoculation, percentage of dead insects was investigated, from which mortality was calculated. The test was carried out with triplicate group of 10 insects.

| Structure (SMILES) | Termite-killing effect |
| --- | --- |
| N#Cc1ccc(CC(NNC(=O)Nc2ccc(OC(F)(F)F)cc2)c2cccc(C(F)(F)F)c2)cc1 (stereo not shown) [Compound 96] | A (100) |
| N#Cc1ccc(CC(=NNC(=S)Nc2ccc(OC(F)(F)F)cc2)c2cccc(Cl)c2)cc1 [Compound 20] | A (100) |
| CC(C)OC(C(=NNC(=O)Nc1ccc(OC(F)(F)F)cc1)c1ccccc1)c1ccccc1 (racemic) [Compound 69] | B (99-90) |
| O=C(NN=C(Cc1ccc([N+](=O)[O-])cc1)c1ccccc1)Nc1ccc(Cl)cc1 [Compound 10] | A (100) |
| N#Cc1ccc(CC(=NNC(=O)Nc2ccc(Cl)cc2)c2cccc(C(F)(F)F)c2)cc1 [Compound 83] | D (79-50) |
| O=C(CNN(Cc1ccc(Cl)cc1)c1cccc(Cl)c1)Nc1ccc(Cl)cc1 [Compound 147] | A (100) |
| N#Cc1ccc(CC(=NNC(=S)Nc2ccc(OC(F)(F)F)cc2)c2cccc(C(F)(F)F)c2)cc1 [Compound 45] | A (100) |
| N#Cc1ccc(CC(=NNC(=O)Nc2ccc(Cl)cc2)c2cccc(Br)c2)cc1 [Compound 26] | A (100) |
| N#Cc1ccc(CC(=NNC(=O)Nc2ccc(OC(F)(F)F)cc2)c2cccc(C(F)(F)F)c2)cc1 [Compound 82] | B (99-90) |
| N#Cc1ccc(CN(N=CC(=O)Nc2ccc(Cl)cc2)c2cccc(F)c2)cc1 [Compound 134] | A (100) |
| O=C(NN=C(c1ccccc1)C(O)c1ccc(Cl)cc1)Nc1ccc(OC(F)(F)F)cc1 (stereo not shown) [Compound 60] | C (89-80) |
| N#Cc1ccc(CN(NCC(=O)Nc2ccc(Cl)cc2)c2cccc(C(F)(F)F)c2)cc1 [Compound 157] | A (100) |
| O=C(NN=C(Cc1ccccc1)c1ccccc1)Nc1ccc(Cl)cc1 [Compound 1] | A (100) |
| N#Cc1ccc(CC(NNC(=O)Nc2ccc(OC(F)(F)F)cc2)c2cccc(Cl)c2)cc1 (stereo not shown) [Compound 91] | A (100) |
| O=C(NNC(Cc1ccc(Br)cc1)c1ccccc1)Nc1ccc(OC(F)(F)F)cc1 (stereo not shown) [Compound 111] | D (79-50) |
| O=C(NN=C(Cc1ccccc1)c1cccc(C(F)(F)F)c1)Nc1ccc(OC(F)(F)F)cc1 [Compound 43] | A (100) |
| N#Cc1ccc(CC(=NNC(=O)Nc2ccc(OC(F)(F)F)cc2)c2cccc(C(F)(F)F)c2)cc1 [Compound 44] | C (89-80) |
| N#Cc1ccc(CN(N=CC(=O)Nc2ccc(OC(F)(F)F)cc2)c2cccc(F)c2)cc1 [Compound 135] | B (99-90) |
| O=C(NNC(Cc1ccc(F)cc1)c1ccccc1)Nc1ccc(OC(F)(F)F)cc1 (stereo not shown) [Compound 109] | C (89-80) |
| O=C(NNC(Cc1ccc(Cl)cc1)c1ccccc1)Nc1ccc(OC(F)(F)F)cc1 (racemic) [Compound 86] | A (100) |
| O=C(CNN(Cc1ccccc1)c1ccccc1)Nc1ccc(OC(F)(F)F)cc1 [Compound 143] | C (89-80) |
| CN(N=C(c1ccccc1)C(O)c1ccccc1)C(=O)Nc1ccc(Cl)cc1 (racemic) [Compound 74] | A (100) |
| N#Cc1ccc(CC(NNC(=O)Nc2ccc(OC(F)(F)F)cc2)c2cccc(C(F)(F)F)c2)cc1 (single isomer, unassigned) [Compound 117] | A (100) |
| N#Cc1ccc(CC(=NNC(=O)Nc2ccc(OC(F)(F)F)cc2)c2cccc(I)c2)cc1 [Compound 37] | A (100) |
| N#Cc1ccc(C(O)C(=NNC(=O)Nc2ccc(OC(F)(F)F)cc2)c2ccccc2)cc1 (racemic) [Compound 63] | A (100) |
| N#Cc1cccc(CC(NNC(=O)Nc2ccc(OC(F)(F)F)cc2)c2ccccc2)c1 (stereo not shown) [Compound 112] | A (100) |
| N#Cc1ccc(CC(=NNC(=O)Nc2ccc([S+]([O-])C(F)(F)F)cc2)c2cccc(Br)c2)cc1 (stereo not shown) [Compound 29] | C (89-80) |
| N#Cc1ccc(CC(=NNC(=O)Nc2ccc([S+]([O-])C(F)(F)F)cc2)c2cccc(C(F)(F)F)c2)cc1 (stereo not shown) [Compound 81] | A (100) |
| N#Cc1ccc(CC(NNC(=O)Nc2ccc([S+]([O-])C(F)(F)F)cc2)c2cccc(Cl)c2)cc1 (stereo not shown) [Compound 93] | D (79-50) |

tested on: fireant (Solenopsis geminata); assay: Test Example 2: drench treatment of fireant nests; assay type: in vivo; parameters: key: A: Nest is completely destructed or activity of the nest is extremely low.; B: Activity of the nest is exhibited.; C: High activity of the nest is exhibited.; D: Activity of the nest is extremely high; conditions: 1 g of the active ingredient per one nest, 14 days after the treatment
Description: The ant controller of the present invention was applied to nests (anthill) of fireant (Solenopsis geminata) with drench treatment, in terms of 1 g of the active ingredient per one nest. 14 Days after the treatment of the ant controller, the activity of the nests was evaluated according to the following criterion. The test was carried out with one block per one nest.

| Structure (SMILES) | activity of the nests (effect) |
| --- | --- |
| N#Cc1ccc(CC(NNC(=O)Nc2ccc(OC(F)(F)F)cc2)c2cccc(C(F)(F)F)c2)cc1 (stereo not shown) [Compound 96] | A |
| N#Cc1ccc(CC(=NNC(=O)Nc2ccc(OC(F)(F)F)cc2)c2cccc(C(F)(F)F)c2)cc1 [Compound 44] | A |
